Assay results taken from publication PMC12018195, “A conserved phosphorylation mechanism for regulating the interaction between the CMG replicative helicase and its forked DNA substrate” (The Journal of Biological Chemistry, 2025).

Columns and labels:
Assay in all cases: radiometric kinase assay, SDS-PAGE
Type in all cases: biochemical
human (Hs) Chk2 = target: T1, human (Hs) Chk2 (Homo sapiens, UniProt O96017); conditions: phosphate donor, 300 μM ATP spiked with labelled compound; acceptor histone H1 / Cdc25 peptide; 10 mM Mg acetate, pH 7.6, 30 °C
T1 construct: gene CHEK2

Drosophila (Dm) Chk1 = target: T2, Drosophila (Dm) Chk1 (Drosophila melanogaster, UniProt O61661); conditions: phosphate donor, 300 μM ATP spiked with labelled compound; acceptor MCM2-7 / CMG / histone H1; 10 mM Mg acetate, pH 7.6, 30 °C
T2 construct: gene grp
T2 sequence (O61661 1-512): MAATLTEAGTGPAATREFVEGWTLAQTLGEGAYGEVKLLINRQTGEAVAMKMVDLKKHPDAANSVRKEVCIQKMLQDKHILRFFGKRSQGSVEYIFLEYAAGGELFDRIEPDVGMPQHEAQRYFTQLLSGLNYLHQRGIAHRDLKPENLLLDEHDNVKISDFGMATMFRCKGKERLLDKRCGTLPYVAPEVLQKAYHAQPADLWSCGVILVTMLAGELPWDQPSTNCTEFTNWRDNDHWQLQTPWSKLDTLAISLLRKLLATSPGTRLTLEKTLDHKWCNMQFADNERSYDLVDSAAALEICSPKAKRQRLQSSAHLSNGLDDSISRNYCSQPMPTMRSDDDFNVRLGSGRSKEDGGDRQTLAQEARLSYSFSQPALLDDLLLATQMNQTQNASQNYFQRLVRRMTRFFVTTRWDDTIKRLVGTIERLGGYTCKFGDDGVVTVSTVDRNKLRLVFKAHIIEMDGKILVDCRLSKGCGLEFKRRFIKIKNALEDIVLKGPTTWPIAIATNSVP

human (Hs) Chk1 = target: T3, human (Hs) Chk1 (Homo sapiens, UniProt O14757); conditions: phosphate donor, 300 μM ATP spiked with labelled compound; acceptor MCM2-7 / CMG / histone H1; 10 mM Mg acetate, pH 7.6, 30 °C
T3 construct: gene CHEK1
T3 sequence (O14757 1-476): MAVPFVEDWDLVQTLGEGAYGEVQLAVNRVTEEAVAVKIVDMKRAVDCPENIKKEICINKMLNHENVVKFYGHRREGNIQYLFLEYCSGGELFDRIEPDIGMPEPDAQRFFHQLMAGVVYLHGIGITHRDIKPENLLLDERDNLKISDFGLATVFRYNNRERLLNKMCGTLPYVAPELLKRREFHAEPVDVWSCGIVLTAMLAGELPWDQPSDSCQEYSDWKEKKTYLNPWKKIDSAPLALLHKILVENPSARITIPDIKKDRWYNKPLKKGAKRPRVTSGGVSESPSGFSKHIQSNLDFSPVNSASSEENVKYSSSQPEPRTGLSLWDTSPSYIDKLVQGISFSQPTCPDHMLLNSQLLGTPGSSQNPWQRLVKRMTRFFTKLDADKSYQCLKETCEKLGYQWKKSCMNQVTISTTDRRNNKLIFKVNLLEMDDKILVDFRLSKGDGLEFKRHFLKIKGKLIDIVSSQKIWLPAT

mouse (Mm) Chk2 = target: T4, mouse (Mm) Chk2 (Mus musculus, UniProt Q9Z265); conditions: phosphate donor, 300 μM ATP spiked with labelled compound; acceptor histone H1 / Cdc25 peptide; 10 mM Mg acetate, pH 7.6, 30 °C
T4 construct: gene Chek2
T4 sequence (Q9Z265 whole entry): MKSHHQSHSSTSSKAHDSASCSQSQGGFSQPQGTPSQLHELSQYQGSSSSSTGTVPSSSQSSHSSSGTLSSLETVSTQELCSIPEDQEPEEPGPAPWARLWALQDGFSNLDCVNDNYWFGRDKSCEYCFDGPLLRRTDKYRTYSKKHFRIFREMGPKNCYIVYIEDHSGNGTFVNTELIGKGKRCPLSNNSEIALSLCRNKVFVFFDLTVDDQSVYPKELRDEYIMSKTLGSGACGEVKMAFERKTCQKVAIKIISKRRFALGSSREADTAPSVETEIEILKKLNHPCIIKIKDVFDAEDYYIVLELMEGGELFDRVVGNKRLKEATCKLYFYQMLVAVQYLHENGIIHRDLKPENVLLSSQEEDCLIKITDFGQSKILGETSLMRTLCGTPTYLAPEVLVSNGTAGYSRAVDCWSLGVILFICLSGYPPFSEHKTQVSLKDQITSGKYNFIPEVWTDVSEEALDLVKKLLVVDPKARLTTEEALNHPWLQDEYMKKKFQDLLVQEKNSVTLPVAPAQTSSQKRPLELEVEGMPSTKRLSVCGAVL

T1 sequence (O96017 whole entry): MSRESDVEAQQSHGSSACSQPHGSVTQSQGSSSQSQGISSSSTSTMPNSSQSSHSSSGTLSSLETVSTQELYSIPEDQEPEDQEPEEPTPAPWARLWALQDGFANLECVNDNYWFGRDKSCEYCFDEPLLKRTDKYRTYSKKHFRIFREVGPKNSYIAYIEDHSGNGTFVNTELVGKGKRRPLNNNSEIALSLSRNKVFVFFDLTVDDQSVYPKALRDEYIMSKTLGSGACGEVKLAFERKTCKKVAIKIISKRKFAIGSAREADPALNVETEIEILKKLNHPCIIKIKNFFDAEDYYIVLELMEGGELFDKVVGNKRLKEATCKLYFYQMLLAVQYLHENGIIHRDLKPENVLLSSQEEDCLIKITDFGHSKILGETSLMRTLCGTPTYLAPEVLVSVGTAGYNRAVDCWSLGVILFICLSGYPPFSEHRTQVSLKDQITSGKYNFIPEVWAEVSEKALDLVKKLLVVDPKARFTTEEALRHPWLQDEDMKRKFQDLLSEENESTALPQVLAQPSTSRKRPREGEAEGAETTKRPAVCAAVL

Nc1ncnc2c1ncn2[C@@H]1O[C@H](COP(=O)(O)OP(=O)(O)OP(=O)(O)O)[C@@H](O)[C@H]1O [ATP]
radiometric kinase assay, SDS-PAGE (human (Hs) Chk2): human and mouse Chk2 were able to efficiently phosphorylate Cdc25 and histone H1 control substrates | radiometric kinase assay, SDS-PAGE (Drosophila (Dm) Chk1): Drosophila Chk1 phosphorylated, on average, close to one residue per MCM2-7 complex | radiometric kinase assay, SDS-PAGE (human (Hs) Chk1): The Chk1 proteins from Drosophila and humans phosphorylated MCM2-7 with similar efficiency | radiometric kinase assay, SDS-PAGE (mouse (Mm) Chk2): human and mouse Chk2 were able to efficiently phosphorylate Cdc25 and histone H1 control substrates
